Consider two substances from US20070218030A1, “Dietetic Preparation for Prevention and Treatment of Osteoporosis” (priority 2003, published 2007).

For the experiment, the system named is ovarectomised female rats. Put plainly: experimental osteoporosis in ovarectomised female rats, oral administration. The class given is in vivo. Particulars: for symptoms of osteoporosis: female rats after surgically removed ovaries, administered orally, not yet published experimental results. As to the method:
An experiment was carried out on ovarectomised female rats in which an experimental osteoporosis was induced.

Setting [1] is: ovarectomised female rats with induced experimental osteoporosis, oral, molecular weight over 500 000 g/mol, dosage 150 to 4500 μg/kg.

As to sodium hyaluronate, the symptoms of osteoporosis result was “able to suppress symptoms of osteoporosis”. Also, under setting [1], the bone density entry is “normalisation of bone density” and the “excretion of the metabolite of bone matrix breakdown into urine” value was “returned to normal”.

As to calcium hyaluronate, the symptoms of osteoporosis result was “able to suppress symptoms of osteoporosis”.
